Data as given in patent publication US20240360143A1, “[1,2,4]TRIAZOLO[4,3-A]PYRIMIDIN-7(8H)-ONE AS MITOCHONDRIAL PYRUVATE CARRIER INHIBITORS FOR USE IN THE TREATMENT OF CANCER” (MPC THERAPEUTICS SA, priority 2021, published 2024).

Assays:
[1] = test system: B16F10 tumors modified to express HER2; assay: Adoptive cell transfer of HER2-CAR T cells produced with compound, B16 melanoma expressing HER2; type: in vivo, mouse
Method: For each retroviral preparation, 8×10^6 Phoenix ECO cells (ATCC, CRL-3214) were plated in a T150 tissue culture flask in RPMI medium supplemented with 10% FCS, 10 mM HEPES and 50 U/ml Penicillin-Streptomycin. On the next day, cells were transfected with 21 μg of the retroviral construct with Turbofect transfection reagent (Thermo Fischer Scientific), according to the manufacturer protocol. The medium was changed daily and collected at 48 h and 72 h post transfection. 48 h and 72 h virus supernatants were pooled and sedimented at 22′000 rcf for 2 h at 4° C. Finally, retrovirus pellets were resuspended in 2 ml of full RPMI medium and divided in 8 aliquots of 250 μl each, which were snap-frozen on dry ice and stored at −80° C.
Spleens from wild type CD45.1.2 mice were smashed on a 70 μm cell strainer. CD8 T cells were purified using the Easy SepTM Mouse CD8+ T Cell Isolation Kit (StemCell) according to the manufacturer protocol. 0.5×10^6 CD8 T cells were plated in 48 well plates in 0.5 ml of complete RPMI 1640 medium supplemented with 10% FCS, antibiotics and 50 IU/ml of recombinant human IL-2, and exposed to either DMSO or 20 μM Compound 45. Mouse T-cells were activated with Activator CD3/CD28 Dynabeads (Gibco) at a ratio of 2 beads per cell. Retroviral infection was conducted at 37° C. for 24 h. Untreated 48 well plates were coated for 24 h with 20 μg/ml of recombinant human fibronectin (Takara Clontech) at 4° C., followed by PBS 2% BSA for 30 min at RT and finally washed with PBS. One aliquot of concentrated retroviruses was plated in each fibronectin-coated 48 well plates and centrifuged for 90 min at 2′000 rcf and 32° C. Then, 0.5×10^6 of 24 h-activated CD8 T cells were added on top of the viruses and spun for 10 min at 400 rcf and 32° C. On day 3, the medium was replaced with 10 IU/ml recombinant human IL-2, 10 ng/ml recombinant human IL-7 and 10 ng/ml recombinant human IL-15, containing either DMSO or 20 μM Compound 45. Cells were then split every second day.
CD45.2 C57BL/6 mice were engrafted subcutaneously with 4×10^5 B16F10 tumors modified to express HER2. Six days later, mice were lymphodepleted with 100 mg/kg cyclophosphamide (Sigma Aldrich, C7397) injected i.p., and homogeneous groups were constituted with regard to tumor volume. T cells (5×10^6) were adoptively transferred i.v. on the next day. Tumor volumes were measured three times a week with a caliper and calculated using the formula: V=π×[d2×D]/6, where d is the minor tumor axis and D is the major tumor axis. Tumors were collected and separated from skin. Single cell suspensions were obtained with the Mouse Tumor Dissociation Kit (Miltenyi, 130-096-730) according to the manufacturer protocol. Spleen and draining lymph node were smashed on a 70 μm cell strainer. Single cell suspensions were stained with antibodies before flow cytometry analysis.
Polyclonal CD8 T cells from wild type mice were activated in the presence of DMSO or 20 μM Compound 45 and then retrovirally transduced with a HER2-CAR construct (FIG. 4A). […] No difference in percentages of memory precursor effector T cells could be detected (FIG. 4F) and TCF1-expressing T cells (FIG. 4G). […] More tumor-infiltrating Compound 45-treated CAR T cells expressed TCF1 (FIG. 5H). […] Finally, fewer Compound 45-treated CAR T cells were expressing the inhibitory molecules PD1 and TIM3, indicating a less exhausted phenotype (FIG. 5K).

[2] = molecular target: T1, mitochondrial pyruvate carrier (MPC) (Homo sapiens, UniProt O95563+Q9Y5U8); assay: Bret IC50, inhibitory activity against MPC; type: cell-based
T1 sequence (Q9Y5U8 1-109): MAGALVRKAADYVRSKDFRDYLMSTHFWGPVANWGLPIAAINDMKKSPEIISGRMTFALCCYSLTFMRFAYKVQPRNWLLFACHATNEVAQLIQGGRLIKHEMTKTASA
T1 sequence (O95563 1-127): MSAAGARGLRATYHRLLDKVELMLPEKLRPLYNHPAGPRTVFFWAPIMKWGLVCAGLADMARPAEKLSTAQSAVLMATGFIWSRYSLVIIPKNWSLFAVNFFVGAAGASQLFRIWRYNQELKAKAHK
Source text: The inhibition of mitochondrial pyruvate carrier (MPC) by compounds of the invention have been tested as follows and their inhibitory activity was expressed as IC50s values.
Table 2 below presents the IC50s of the compounds of the invention.

[3] = test system: CD8 T cells (OT1 splenocytes); assay: In vitro priming of CD8 T cells (OT1 splenocytes), memory marker expression by flow cytometry; type: cell-based, mouse; settings: day 7, highest doses
Method: OT1 splenocytes were cultured for 3 days at a concentration of 10^6 cells per mL in RPMI medium (Gibco 61870-01) supplemented with 10% FBS, (Gibco 10270-106), 1% Penicillin/Streptomycin (Gibco 15070-063), 50 μM ß-mercaptoethanol, 1% HEPES (Gibco 15630-080), 1× Non-essential amino acids (Gibco 11140-035), 1% L-glutamine (Gibco 25030-081), 1 mM Sodium Pyruvate (Gibco 11360-039). Cells were additionally supplemented with hIL-2 100 U/ml (Glaxo-IMB), ovalbumin N4 peptide (257-264) 1 μg/ml (model peptide antigen from ovalbumin) and either different concentrations of Compound 45 or 47 or with their solvent DMSO as a control. At day 3, splenocytes were collected, washed and split, and cells were cultured for 4 additional days with 100 U/ml hIL-2 and hIL-7 (Peprotech 200-07) supplemented either with Compound 45 or 47 or DMSO. At day 7, flow cytometry analyses were performed for surface marker expression.
To evaluate the effects of MPC inhibition on T cell differentiation, OTI splenocytes were cultured in the presence of 1 μg/ml ovalbumin-derived N4 peptide, 100 IU/ml recombinant human IL-2 (rhIL-2) and the MPC inhibitors Compound 45 or 47 or control DMSO for 3 days. The cells were cultured for 4 more days in the presence of 100 IU/ml IL-2 and 10 ng/ml rhIL-7 (FIG. 1A) and the inhibitors or DMSO. When analyzing the surface expression of the central memory marker CD62L (FIG. 1B) and the pro-survival receptor CD127 (FIG. 1C) by flow cytometry on day 7, an increase in cells treated with the highest doses of compounds of the invention was observed compared to DMSO.

For `O=c1cc(Cc2ccccc2)n2c(SCc3c(F)cccc3Cl)nnc2[nH]1` [Compound 45, 5-benzyl-3-[(2-chloro-6-fluorobenzyl)sulfanyl][1,2,4]triazolo[4,3-a]pyrimidin-7 (8H)-one], the tumor growth ([1]; HER2CAR T cells produced with 20 μM compound, 5×10^6 cells i.v. (FIGS. 4B and 4C)) was “significantly suppress”, the “number of CAR T cells in blood” value ([1]; blood 12 days after ACT (FIG. 4D)) was “no difference” and the “percentage of HER2CAR T cells forming short-lived effector T cells” value ([1]; blood 12 days after ACT (FIG. 4E)) was “significantly reduced”. The “percentages of memory precursor effector T cells” value ([1]; blood 12 days after ACT (FIG. 4F)) was “No difference”, the “percentages of TCF1-expressing T cells” value ([1]; blood 12 days after ACT (FIG. 4G)) was “No difference” and the “central memory T cell differentiation” value ([1]; draining lymph node (FIG. 5B)) was “Neither in the draining lymph node nor in the spleen could be observed a difference”. For the same compound, the “HER2CAR T cells expressing TCF1” value ([1]; draining lymph node (FIG. 5C)) was “Neither in the draining lymph node nor in the spleen could be observed a difference”, the “engraftment of HER2CAR T cells in the spleen” value ([1]; spleen (FIG. 5D)) was “increase was significant” and the “central memory T cell differentiation” value ([1]; spleen (FIG. 5E)) was “Neither in the draining lymph node nor in the spleen could be observed a difference”. For the same compound, the “HER2CAR T cells expressing TCF1” value ([1]; spleen (FIG. 5F)) was “Neither in the draining lymph node nor in the spleen could be observed a difference”, the “CAR T cells in tumors” value ([1]; tumor (FIG. 5G)) was “significantly more” and the “tumor-infiltrating CAR T cells expressing TCF1” value ([1]; tumor (FIG. 5H)) was “More”. For the same compound, the “CAR T cells expressing the inhibitory molecules PD1 and TIM3” value ([1]; tumor (FIG. 5K)) was “fewer”, the “progenitor exhausted T cells (TCF1-positive)” value ([1]; tumor, co-expression of TCF1 with PD1 (FIG. 5I)) was “more” and the “terminally differentiated exhausted T cells (TCF1-negative)” value ([1]; tumor, co-expression of TCF1 with PD1 (FIG. 5J)) was “less”. The “engraftment of HER2CAR T cells in the tumor-draining lymph nodes” value ([1]; tumor-draining lymph nodes (FIG. 5A)) was “trend towards an increased engraftment”, the IC50 [2] was 117 nM and the “cells positive for central memory marker CD62L” value ([3]; vs DMSO (FIG. 1B)) was “increase”. The “cells positive for pro-survival receptor CD127” value ([3]; vs DMSO (FIG. 1C)) was “increase”.
